Experimental data from ChEMBL document CHEMBL1152723, “Remarkable enhancement in the DNA-binding ability of C2-fluoro substituted pyrrolo[2,1-c][1,4]benzodiazepines and their anticancer potential” (2009).

Test system: DNA
Assay: Binding affinity to calf thymus DNA assessed as change in melting temperature at a compound to DNA molar ratio of 1:5 at pH 7 by thermal denaturation assay
Assay type: nucleic-acid assay
Conditions: Bos taurus

Row | Structure (SMILES) | ΔTm [°C]
1 | COc1cc2c(cc1OCCCCN1CCN(CCCCOc3cc4c(cc3OC)C(=O)N3CC(F)C[C@H]3C=N4)CC1)N=C[C@@H]1CC(F)CN1C2=O (stereo partly drawn) | 38
2 | COc1cc2c(cc1OCCCCCN1CCN(CCCCCOc3cc4c(cc3OC)C(=O)N3CC(F)C[C@H]3C=N4)CC1)N=C[C@@H]1CC(F)CN1C2=O (stereo partly drawn) | 37
3 | C=C1C[C@H]2C=Nc3cc(OCCCOc4cc5c(cc4OC)C(=O)N4CC(=C)C[C@H]4C=N5)c(OC)cc3C(=O)N2C1 | 25.7
